Data: article PMC3261944, “The in Vitro Estrogenic Activities of Polyfluorinated Iodine Alkanes” (Environmental Health Perspectives, 2011)
Entries after “also recorded” stand apart in the source; their conditions may differ.

Tests used:
TFF1 (pS2) = assay: Expression of estrogen-responsive gene TFF1 (quantitative RT-PCR); type: cell-based, Human; details: MCF-7 cells, 48 hr, vs 0.1% ethanol; 50 μM PFBI, PFHxI, PFOI, PFBDI, PFOA, PFOC, PFOB, 1-iodohexane, 4:2 FTI, 6:2 FTI; 40 μM PFDI, PFDoI, PFODI, 8:2 FTI, 10:2 FTI; 20 μM PFHxDI; 100 pM E2
Protocol: (§1) RNA isolation and reverse transcription polymerase chain reaction (RT-PCR). MCF-7BUS cells were seeded in six-well plates at the density of 1.0 × 10^6 cells per well, starved in SF medium for 48 hr, and exposed to test compounds for 48 hr. First, cells were rinsed twice with cold phosphate-buffered saline, and total RNA was isolated using Trizol reagent (Invitrogen Inc., Carlsbad, CA, USA) following the manufacturer’s protocol. The 260 nm and 280 nm absorbance reading of total RNA was performed using a Nanodrop spectrophotometer (Thermo Scientific, Waltham, MA, USA). The concentration of RNA was quantified by the reading at 260 nm.
(§2) We used a two-step quantitative RT-PCR to quantify gene expression. Total RNA was converted to cDNA using M-MLV (Moloney murine leukemia virus) reverse transcriptase (Promega, Madison, WI, USA) with oligo dT(15), following the manufacturer’s instructions. The final cDNA solution was diluted five times with DNase/RNase-free water (Gibco). Quantitative PCR was performed with a Stratagene MX3005 thermal cycler (Stratagene, La Jolla, CA, USA). PCR reaction mixtures (25 μL) contained 12.5 μL GoTaq Green Master Mix (Promega), 2 μL diluted cDNA, and 0.2 μM sense/antisense primers. The thermal cycle was 5 min at 95°C, followed by 45 cycles of 15 sec at 95°C, 30 sec at 55°C, and 30 sec at 72°C. The primer sequences of early growth response protein 3 (EGR3) were derived from [Terasaka et al. (2004)]. We designed the primers of internal gene β-actin and trefoil factor 1 (TFF1; pS2) with Primer Premier 5 software (Premier Biosoft International, Palo Alto, CA, USA). The primer sequences were as follows: for β-actin (NM_001101), 5´-CACTCT[…]TCCTTCC-3´ (forward) and 5´-[…][…]-3´ (reverse); for EGR3 (NM_004430), 5´-CCATGATTC[…]-3´ (forward) and 5´-GTGGATCTGCTTGTCTTTGAATG-3´ (reverse); and for TFF1 (NM_003225), 5´-AGAAGCG […]-3´ (forward) and 5´-[…][…]-3´ (reverse). The quantification of target gene expression was based on a comparative cycle threshold (Ct) value. We normalized the expression level of each target gene to its reference gene β-actin. The fold change of the target genes was analyzed by the 2^−ΔΔCt method ([Livak and Schmittgen 2001]). We used melting curve analysis and agarose gel electrophoresis to verify the correct PCR products.

EGR3 = assay: Expression of estrogen-responsive gene EGR3 (quantitative RT-PCR); type: cell-based, Human; details: MCF-7 cells, 48 hr, vs 0.1% ethanol; 50 μM PFBI, PFHxI, PFOI, PFBDI, PFOA, PFOC, PFOB, 1-iodohexane, 4:2 FTI, 6:2 FTI; 40 μM PFDI, PFDoI, PFODI, 8:2 FTI, 10:2 FTI; 20 μM PFHxDI; 100 pM E2
Protocol: as §1, §2

ER = target: T1, ER (Homo sapiens, UniProt P03372); assay: MVLN assay (estrogen-responsive luciferase reporter transactivation); type: cell-based; details: for MVLN assay Maximum induction (%): percentage of the maximum induction (luciferase) of tested compound to that of E2, 2 days exposure; for Luciferase induction / estrogenic effect in the MVLN assay (in words): within the tested concentration ranges
T1 construct: This cell line was stably transfected with the luciferase reporter gene and estrogen-responsive element derived from the Xenopus vitellogenin A2 gene; endogenous in cells; host or cells: MVLN cells (provided by J.P. Giesy)
T1 sequence (P03372 1-595): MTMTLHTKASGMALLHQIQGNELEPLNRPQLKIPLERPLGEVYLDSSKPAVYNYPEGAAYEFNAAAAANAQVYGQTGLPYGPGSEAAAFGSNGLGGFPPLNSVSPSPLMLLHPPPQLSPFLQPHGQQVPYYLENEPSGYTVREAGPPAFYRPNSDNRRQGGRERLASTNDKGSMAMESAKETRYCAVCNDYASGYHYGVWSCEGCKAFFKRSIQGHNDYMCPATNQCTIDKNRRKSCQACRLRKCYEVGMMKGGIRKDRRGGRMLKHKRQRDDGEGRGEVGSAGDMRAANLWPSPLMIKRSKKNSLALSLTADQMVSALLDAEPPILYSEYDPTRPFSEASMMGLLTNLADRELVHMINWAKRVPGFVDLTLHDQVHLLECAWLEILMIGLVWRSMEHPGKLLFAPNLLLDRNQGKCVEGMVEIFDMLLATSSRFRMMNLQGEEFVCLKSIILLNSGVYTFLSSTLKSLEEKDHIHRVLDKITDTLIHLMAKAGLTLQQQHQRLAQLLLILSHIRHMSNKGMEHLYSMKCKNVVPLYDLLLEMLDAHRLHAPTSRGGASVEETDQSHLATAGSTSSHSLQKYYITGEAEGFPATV
Protocol: (§3) Cell culture. Human MCF-7BUS breast adenocarcinoma cells and MVLN cells were cultured in 100-mm culture dishes in a humidified atmosphere of 5% CO2 at 37°C. Cells were maintained in Dulbecco’s modified Eagle’s medium (DMEM)/F-12 (Hyclone, Logan, UT, USA) containing 10% fetal bovine serum, 100 U/mL streptomycin-penicillin, 2 mM L-glutamine, and 1% insulin-transferrin-selenium supplement (all from Gibco, Grand Island, NY, USA).
MVLN assay. The MVLN cell line was kindly provided by J.P. Giesy (Michigan State University, East Lansing, MI, USA). This cell line was stably transfected with the luciferase reporter gene and estrogen-responsive element derived from the Xenopus vitellogenin A2 gene. […] Cells were seeded in the interior 60 wells of a 96-well ViewPlate (Packard Instrument Company, Boston, MA, USA) at a density of 7 × 10^4 cells/well, starved in SF medium for 48 hr, and exposed to test compounds for 2 days. […] Luciferase activity was measured with the LucLite kit (Packard Instruments) according to the manufacturer’s protocol. We measured luminescence by microplate reader (Varioskan Flash) and integrated the luminescence signal for 10 sec. Total protein content was measured by the Bradford assay (Tiangen, Beijing, China) to normalize luminescent units. The results are given as relative luminescent unit per microgram protein. The maximal induction of positive control (corrected for solvent control, 0.1–0.2% ethanol) was set as 100%, and the responses of other chemicals were converted to a percentage of the maximum level. Three replicates were used in each experiment. The cytotoxicity of tested chemicals was examined by WST-1 kit in parallel and routinely observed under microscope to identify the exposure concentration range.
(§4) The concentration–response analyses were performed with four-parameter logistic curve regression analysis according to the following formula:
(§5) y = minimum + (maximum – minimum) ÷ [1 + (x/EC50)^Hill slope], [1]
(§6) where y is the response value, x is the log concentration of the test compound, and EC50 is the concentration that induces half of the maximum proliferation effect or luciferase activity.
EC50 values were calculated from this nonlinear regression model. EC20 were calculated as
ECx = [x/(100 – x)]^(1/Hill slope) × EC50, [2]

MCF-7BUS cells = assay: E-screen assay (MCF-7BUS cell proliferation, WST-1); type: cell-based, Human; details: for E-screen Maximum induction (%): percentage of the maximum proliferation effect of tested compound to that of E2, 6 days exposure; for Proliferation / estrogenic effect in the E-screen assay (in words): within the tested concentration ranges
Protocol: as §3
E-screen assay. MCF-7BUS cells were kindly provided by A.M. Soto and C. Sonnenschein (Tufts University School of Medicine, Boston, MA, USA). In response to ERα agonists, the mitotic effect leads to the proliferation of MCF-7BUS cells. […] Cells were trypsinized and plated into the interior 60 wells of 96-well plates at the density of 3,000 cells/well. Before each experiment, cells were starved in steroid-free (SF) medium for 48 hr to minimize the basal hormonal activity during assays. SF medium consisted of phenol red–free DMEM/F-12 (Hyclone) supplemented with 5% dextran-charcoal-treated fetal bovine serum (Hyclone), 100 U/mL streptomycin-penicillin, and 2 mM L-glutamine. […] We used a WST-1 proliferation kit (Roche Diagnostics, Mannheim, Germany) to assess proliferation after 6 days of exposure according to the kit instructions. The WST-1 assay is based on the enzymatic cleavage of the tetrazolium salt WST-1 to formazan by cellular mitochondrial dehydrogenases present in viable cells. The absorbance of the WST-1 solution was detected by a microplate reader (Varioskan Flash, Thermo Fisher Scientific, Waltham, MA, USA) at 450 nm, with the reference wave length at 690 nm. The cell proliferation effect was calculated from the solvent control (0.1% ethanol)-corrected absorbance and expressed as the percentage of maximal absorbance of the positive control. Three replicates were used in each experiment.
as §4, §5, §6
EC50 values were calculated from this nonlinear regression model. EC20 were calculated as […]

[1] = system: gap junction intercellular communication; set-up: method as in Hu et al. 2002; Upham et al. 1998; details: ref Hu et al. 2002; Upham et al. 1998; cited from earlier work
vitellogenin [2] = system: vitellogenin; set-up: method as in Liu et al. (2007); details: primary cultured tilapia hepatocytes; ref Liu et al. (2007); cited from earlier work
vitellogenin [3] = system: vitellogenin; set-up: method as in Ishibashi et al. 2008; details: male medaka fish; ref Ishibashi et al. 2008; cited from earlier work

SMILES | TFF1 mRNA expression, fold up-regulation (TFF1 (pS2)) | EGR3 mRNA expression, fold up-regulation (EGR3) | MVLN assay Maximum induction (%) (ER) | Luciferase induction / estrogenic effect in the MVLN assay (in words) (ER) | E-screen Maximum induction (%) (MCF-7BUS cells) | Proliferation / estrogenic effect in the E-screen assay (in words) (MCF-7BUS cells) | Inhibition of gap junction intercellular communication [1] | Vitellogenin expression (vitellogenin [2]) | Vitellogenin induction (vitellogenin [3])
CCCCCCI [1-Iodohexane, reference compound] | did not affect the expression | did not affect the expression | NDe (The maximum relative luciferase activity was < 5%) | negative results | NDd (The maximum relative proliferation effect was < 7%) | negative results |  |  | 
O=S(=O)(O)C(F)(F)C(F)(F)C(F)(F)C(F)(F)C(F)(F)C(F)(F)F [perfluorohexanesulfonate] |  |  |  |  |  |  | did not show effects |  | 
FC(F)C(F)(F)C(F)(F)C(F)(F)C(F)(F)C(F)(F)C(F)(F)C(F)(F)F [PFOC, 1H-perfluorooctane, reference compound] | did not affect the expression | did not affect the expression | NDe (The maximum relative luciferase activity was < 5%) | negative results | NDd (The maximum relative proliferation effect was < 7%) | negative results |  |  | 
O=C(O)C(F)(F)C(F)(F)C(F)(F)C(F)(F)C(F)(F)C(F)(F)C(F)(F)F [PFOA, perfluorooctanoic acid, reference compound] |  |  |  |  | NDd (The maximum relative proliferation effect was < 7%) | negative results; also recorded: did not show proliferation effects |  | induced | did not
FC(F)(F)C(F)(F)C(F)(F)C(F)(F)I [PFBI, 1-iodoperfluorobutane] | did not affect the expression | did not affect the expression |  |  | NDd (The maximum relative proliferation effect was < 7%) | did not show proliferation effects |  |  | 
O=S(=O)(O)C(F)(F)C(F)(F)C(F)(F)C(F)(F)F [perfluorobutanesulfonate] |  |  |  |  |  |  | did not show effects |  | 
O=S(=O)(O)C(F)(F)C(F)(F)C(F)(F)C(F)(F)C(F)(F)C(F)(F)C(F)(F)C(F)(F)F [PFOS, perfluorooctane sulfonate] |  |  |  |  |  |  | significantly inhibits | induced | did not
FC(F)(F)C(F)(F)C(F)(F)C(F)(F)C(F)(F)C(F)(F)C(F)(F)C(F)(F)C(F)(F)C(F)(F)I [PFDI, 1-iodoperfluorodecane] | did not affect the expression | did not affect the expression |  |  | NDd (The maximum relative proliferation effect was < 7%) | did not show proliferation effects |  |  | 
FC(F)(F)C(F)(F)C(F)(F)C(F)(F)C(F)(F)C(F)(F)C(F)(F)C(F)(F)Br [PFOB, 1-bromoperfluorooctane, reference compound] | did not affect the expression | did not affect the expression | NDe (The maximum relative luciferase activity was < 5%) | negative results | NDd (The maximum relative proliferation effect was < 7%) | negative results |  |  | 
FC(F)(F)C(F)(F)C(F)(F)C(F)(F)C(F)(F)C(F)(F)C(F)(F)C(F)(F)C(F)(F)C(F)(F)C(F)(F)C(F)(F)I [PFDoI, 1-iodoperfluorododecane] | did not affect the expression | did not affect the expression |  |  | NDd (The maximum relative proliferation effect was < 7%) | did not show proliferation effects |  |  | 
